How the values were obtained:
[1] = system: telomere length in HCC cell lines (Huh7 and Hep3B); assay: Telomere length (Southern blot, immunoFISH, Flow FISH, quantitative PCR); assay type: cell-based, human
Protocol: Volume of the hybridization buffer was adjusted to 100 μl per 10^5 cells. Next, each sample was cultured for 10 minutes in a water bath at 85° C. […] Total 15,000 to 20,000 nuclei were analyzed for the each separate culture. Telomere fluorescence intensity of the all nuclei at […] phase of the cell cycle was measured by using BD FACS Calibur flow cytometer (Becton Dickinson, Franklin Lakes, N.J., USA) in which CELLQUEST software is used. The established ImmunoFISH protocol (Plentz R R, et al., Hepatology. 2007; 45: 968-76) was used with slight modifications. The paraffin-embedded section was subjected to de-paraffinization using xylene, and then rehydrated using ethanol gradient. Antigen retrieval was carried out by boiling in 100 mmol/L sodium citrate (pH 6.0) for 10 minutes in a microwave. After permeation of proteinase K (15 μg/mL in PBS [pH 7.4]) for 20 minutes at 37° C., 8-oxo-dG-specific antibody (1:100, Abcam, Cambridge, Mass., USA; ab62623) was subjected to 1% BSA dilution in PBS 0.1% Triton X-100 and cultured overnight at room temperature. After washing, the slide was treated with Alexa 647 secondary antibody for 1 hour. […] After denaturation for 6 minutes at 90° C., the sample was hybridized for 2 hours at dark place. […] After washing, the slide was rinsed with PBS containing DAPI, and then sealed with a DAPI sealing agent (mounting medium) (Vector Laboratories, Burlingame, Calif., USA). Simultaneously, the inventors of the present invention carried out centromere staining as an internal control for telomere staining and 8-oxo-dG staining. […] For quantification of the telomere fluorescence intensity, centromere fluorescence intensity, and 8-oxo-dG fluorescence intensity, the same exposure time was employed. The telomere fluorescence level and 8-oxo-dG fluorescence level of tumor tissues were calculated by division of the fluorescence level in non-tumor tissues corresponding to 5 random fields. The image analysis was carried out by using Image-Pro plus 6.0 software (Media Cybernetics, Inc., Rockville, Md., USA). Telomere length was determined by using the non-radioactive chemical fluorescence TeloTAGGG telomere length assay (Roche; Cat. No. 12 209 136 001) according to the manual. Genomic DNA was separated from HCC cells using GeneJET Genomic DNA Purification Kit (Thermo Scientific; #K0721), and then 4 μg of the genomic DNA was digested for 16 hours at 37° C. with 20 units of […] digested DNA was subjected to 0.8% agarose gel electrophoresis, and then transferred to a positively charged nylon membrane using capillary transfer. The blotted DNA was hybridized for 16 hours at 42° C. with a digoxigenin (DIG)-labeled probe that is specific to the telomere repeat. After that, it was cultured for 30 minutes at room temperature with DIG-specific antibody conjugated to an alkaline phosphatase Based on quantitative PCR analysis using the genomic DNA extracted from cells, relative telomere repeat copy number (T) and single copy number (S) were determined, and the calculation was made like previous method in which T/S ratio is continuously modified (Cawthon R M. Telomere length measurement by a novel monochrome multiplex quantitative PCR method. Nucleic Acids Res. 2009; 37: e21).

[2] = system: AKT phosphorylation in THLE-3 cells; assay: AKT phosphorylation, immunoblot assay; assay type: cell-based, human
Protocol: Medium was exchanged every day, and the aforementioned cells were cultured for 4 days in 300 μmol/L hydrogen peroxide (H2O2) (Sigma Aldrich; H1009). In several experiments, the cells were treated for 1 hour with 5 mmol/L N-acetylcysteine (NAC) (Sigma Aldrich; A7250), 25 μmol/L idelalisib (LC Laboratoties, Woburn, Mass., USA; I-7447), 25 μmol/L perifosine (LC Laboratoties, Woburn, Mass., USA; P-6522), or 30 μmol/L GSK3β inhibitor (GSK3β inhibitor XI) (Santa Cruz; sc-204770) (31) before adding H2O2. Furthermore, sterilized distilled water (pH 7.0) was used as a negative control (i.e., mock treatment).
Total 2×10^5 cells were boiled for 5 minutes in 2×SDS sample buffer (100 mmol/L TrisHCl [pH 6.8], 4% SDS, 0.2% bromophenol blue, 20% glycerol, and 200 mmol/L β-mercaptoethanol), and then subjected to SDS-PAGE and Western blotting. To detect the TERT, the cells were cultured in 2×SDS sample buffer for 15 minutes at 55° C. TERT-specific (1:300, Rockland Immunochemicals, Gilbertsville, Pa., USA; 600-401-252), AKT-specific (1:1000, Cell Signaling Technology; #9272), phospho-AKT-specific (1:2000, Cell Signaling Technology; #4060), GAPDH-specific (1:2000, Santa Cruz Biotechnology; sc-47724), or β-actin-specific (1:2000, Sigma-Aldrich, St. Louis, Mo., USA; A5441) antibody was diluted in 5% skim milk or bovine serum albumin with TBS-Tween 20, cultured overnight at 4° C., washed, and cultured with HRP-conjugated secondary antibody (1:1000, Abcam; ab131368, or ab131366). By using FUSION-SOLO imager (Vilber Lourmat, Marne La Vallee, France), a chemical fluorescence image was obtained.

Compound | telomere length increased by ([1]; HCC cells treated with 300 μmol/L H2O2, compared to control HCC cells not exposed to H2O2) | AKT phosphorylation level ([2]; THLE-3 cells after H2O2 treatment) | telomere length reduced by ([1]; 300 μmol/L H2O2-treated HCC cells plus idelalisib, compared to HCC cells treated with H2O2 only) | ROS-mediated increase in telomere length ([1]; H2O2-treated cells) | telomere length ([1]; HCC cells, no H2O2) | basal level AKT phosphorylation ([2]; THLE-3, idelalisib at a concentration of 25 μmol/L)
OO [H2O2, hydrogen peroxide] | 25%-30% | no change |  |  |  | 
CC[C@H](Nc1ncnc2nc[nH]c12)c1nc2cccc(F)c2c(=O)n1-c1ccccc1 [idelalisib, 5-fluoro-3-phenyl-2-[(1S)-1-(7H-purin-6-ylamino)propyl]-4(3H)-quinazolinone] |  |  | 40-45% | almost completely inhibited | reduced | not reduced
